Structures are written as SMILES. A value given as a limit tells only on which side of the number the result lay.

The target of experiment [1] is T1, Histone deacetylase 1 (Homo sapiens, UniProt Q13547). Particulars: dose 100.0 nM, time 40.0 min.
For experiment [2], the target named is T2, Protein deacetylase HDAC6 (Homo sapiens, UniProt Q9UBN7).
T2 sequence (Q9UBN7 whole entry): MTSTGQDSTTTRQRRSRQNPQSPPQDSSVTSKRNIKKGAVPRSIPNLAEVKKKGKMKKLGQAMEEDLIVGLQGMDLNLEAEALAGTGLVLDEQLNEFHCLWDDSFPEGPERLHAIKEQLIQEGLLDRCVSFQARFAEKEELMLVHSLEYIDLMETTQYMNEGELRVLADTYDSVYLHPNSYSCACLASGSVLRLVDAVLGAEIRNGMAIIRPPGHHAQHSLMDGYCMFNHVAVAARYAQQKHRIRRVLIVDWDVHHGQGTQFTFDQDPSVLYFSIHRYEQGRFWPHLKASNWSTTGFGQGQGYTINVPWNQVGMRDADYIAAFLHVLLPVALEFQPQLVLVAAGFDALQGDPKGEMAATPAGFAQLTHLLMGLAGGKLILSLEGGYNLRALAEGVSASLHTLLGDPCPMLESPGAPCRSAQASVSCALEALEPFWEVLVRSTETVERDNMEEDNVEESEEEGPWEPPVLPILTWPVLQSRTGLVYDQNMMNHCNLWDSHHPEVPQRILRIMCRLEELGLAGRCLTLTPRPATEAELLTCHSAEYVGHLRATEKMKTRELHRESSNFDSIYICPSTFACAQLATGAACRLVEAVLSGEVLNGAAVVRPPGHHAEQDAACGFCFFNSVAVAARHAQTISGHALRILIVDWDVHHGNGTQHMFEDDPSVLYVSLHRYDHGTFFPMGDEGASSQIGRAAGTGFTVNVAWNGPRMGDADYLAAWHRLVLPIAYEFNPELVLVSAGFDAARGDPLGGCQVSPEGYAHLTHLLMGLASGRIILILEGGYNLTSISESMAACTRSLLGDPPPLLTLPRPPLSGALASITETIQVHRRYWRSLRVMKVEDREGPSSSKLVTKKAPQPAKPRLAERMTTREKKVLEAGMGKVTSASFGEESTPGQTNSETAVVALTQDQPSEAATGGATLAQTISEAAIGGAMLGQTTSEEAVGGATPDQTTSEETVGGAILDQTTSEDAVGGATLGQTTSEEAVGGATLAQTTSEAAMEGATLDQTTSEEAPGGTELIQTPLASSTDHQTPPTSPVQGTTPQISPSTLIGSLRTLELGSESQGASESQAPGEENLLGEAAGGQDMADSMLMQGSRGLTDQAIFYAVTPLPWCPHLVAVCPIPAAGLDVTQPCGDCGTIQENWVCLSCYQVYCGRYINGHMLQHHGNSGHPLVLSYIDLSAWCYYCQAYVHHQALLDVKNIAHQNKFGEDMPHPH
Briefly: Inhibition of recombinant full length human HDAC6 expressed in baculovirus infected Sf9 cells using Z-(Ac)-Lys-AMC as substrate incubated for 40 mins by fluorescence based assay.

Experiment [3] concerns the target T1, Histone deacetylase 1. Briefly: Inhibition of recombinant human HDAC1 using Z-(Ac)-Lys-AMC as substrate incubated for 40 mins by fluorescence based assay.
The subject of a further experiment is MGC-803. Briefly: Antiproliferative activity against human MGC803 cells incubated for 72 hrs by MTT assay. Type of experiment: functional, cell-based. As to conditions: MGC-803, 72 h. In general terms: Tetrazolium assays rely on reduction of a dye to a coloured formazan, in cell work by metabolically active cells.
The target in experiment [4] is T3, Protein deacetylase HDAC6 (Homo sapiens) (UniProt Q9UBN7).
T3 sequence (whole entry): T2 sequence (Q9UBN7 whole entry)
As to conditions: Sf9, dose 100.0 nM, time 40.0 min.

T1 sequence (Q13547 whole entry): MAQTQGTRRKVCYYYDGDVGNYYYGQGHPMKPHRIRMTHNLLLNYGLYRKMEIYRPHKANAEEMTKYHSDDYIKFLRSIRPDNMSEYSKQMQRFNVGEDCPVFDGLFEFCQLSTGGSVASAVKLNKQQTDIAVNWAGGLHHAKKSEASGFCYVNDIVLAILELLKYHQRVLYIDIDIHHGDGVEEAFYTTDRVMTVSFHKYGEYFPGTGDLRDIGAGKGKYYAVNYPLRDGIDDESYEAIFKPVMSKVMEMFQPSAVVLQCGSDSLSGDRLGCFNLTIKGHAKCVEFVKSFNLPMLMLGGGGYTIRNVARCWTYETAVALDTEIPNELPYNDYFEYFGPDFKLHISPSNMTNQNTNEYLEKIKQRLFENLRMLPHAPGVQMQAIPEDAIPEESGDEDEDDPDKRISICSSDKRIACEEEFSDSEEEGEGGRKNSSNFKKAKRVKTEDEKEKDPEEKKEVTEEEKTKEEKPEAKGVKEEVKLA

Take `O=C(NO)c1ccc(NCc2nc(-c3ccccc3)nn2-c2ccc(Br)cc2)cc1`: the results for the inhibition (against Histone deacetylase 1 [1]; in experiment [4]) were 18.2% and 65.9%, respectively. In addition, the IC50 in experiment [2] was 1730 nM; on Histone deacetylase 1 [3] it was 3200 nM; with MGC-803 it was 9300 nM.
Take `Cc1ccc(-c2nc(CNc3ccc(C(=O)NO)cc3)n(-c3ccccc3)n2)o1`: the inhibition was determined as 22.3% against Histone deacetylase 1 [1] and 60.7% in experiment [4].
On the same counts, the results for `CCc1ccc(-c2nc(CNc3ccc(C(=O)NO)cc3)n(-c3ccccc3)n2)cc1` are 13.2% and 54.6%.
The corresponding values for `O=C(NO)c1ccc(NCc2nc(-c3ccccn3)nn2-c2ccccc2)cc1` are 16% and 58.6%.
For the molecule `O=C(NO)c1ccc(NCc2nc(-c3cc4ccccc4s3)nn2-c2ccccc2)cc1`, the inhibition against Histone deacetylase 1 [1] was determined as 26%; in experiment [4] it was 65.5%. In addition, the IC50 stood at 324 nM in experiment [2], 1460 nM at Histone deacetylase 1 [3] and 6110 nM in the experiment with MGC-803.
As for `CNC(=O)c1ccc(NCc2nc(-c3ccccc3)nn2-c2ccccc2)cc1`, the figures for the inhibition (on Histone deacetylase 1 [1]; in experiment [4]) were -0.55% and -3.6%, respectively.
On the same counts, the results for `O=C(NO)c1ccc(NCc2nc(-c3ccc(Cl)c(Cl)c3)nn2-c2ccccc2)cc1` are 7.6% and 34.5%.
The corresponding values for `O=C(NO)c1ccc(NCc2nc(-c3ccsc3)nn2-c2ccccc2)cc1` are 15.2% and 53.4%.
The corresponding values for `Cc1cc(C)cc(-n2nc(-c3ccccc3)nc2CNc2ccc(C(=O)NO)cc2)c1` are 12.4% and 49.8%.
As for `CCc1ccc(-n2nc(-c3ccccc3)nc2CNc2ccc(C(=O)NO)cc2)cc1`, the inhibition came out at 10.8% against Histone deacetylase 1 [1] and 38.3% in experiment [4].
The corresponding values for `Cc1ccccc1-c1nc(CNc2ccc(C(=O)NO)cc2)n(-c2ccccc2)n1` are 16.5% and 53.2%.
For the molecule `O=C(NO)c1ccc(NCc2nc(-c3sccc3Br)nn2-c2ccccc2)cc1`, the values for the inhibition (at Histone deacetylase 1 [1]; in experiment [4]) were 23.7% and 71.1%, respectively. Further, the IC50 is 54.9 nM in experiment [2], 2080 nM at Histone deacetylase 1 [3] and 6320 nM in the experiment on MGC-803.
In the case of `O=C(NO)c1ccc(NCc2nc(-c3ccccc3)nn2-c2ccccc2)cc1`, the inhibition against Histone deacetylase 1 [1] stood at 19%; in experiment [4], 72.6%. Further, the IC50 is 112 nM in experiment [2], 2490 nM on Histone deacetylase 1 [3] and 17700 nM with MGC-803.
On the same counts, the results for `Cc1cccc(-c2nc(CNc3ccc(C(=O)NO)cc3)n(-c3ccccc3)n2)c1` are 13%, 64.1%, 281 nM, 5520 nM and 8710 nM.
Take `O=C(NO)c1ccc(NCc2nc(-c3ccccc3)nn2-c2ccc(Cl)cc2)cc1`: the inhibition against Histone deacetylase 1 [1] amounted to 18%; in experiment [4], 55.4%.
In the case of `CC(C)c1ccc(-n2nc(-c3ccccc3)nc2CNc2ccc(C(=O)NO)cc2)cc1`, the inhibition was 17.3% at Histone deacetylase 1 [1] and 52.6% in experiment [4].
The corresponding values for `O=C(NO)c1ccc(NCc2nc(-c3ccccc3)nn2-c2ccc(C(F)(F)F)cc2)cc1` are 12.8% and 38.9%.
On the same counts, the results for `O=C(NO)c1ccc(NCc2nc(-c3ccco3)nn2-c2ccccc2)cc1` are 16.7% and 59.9%.
With `O=C(NO)c1ccc(NCc2nc(-c3ccc(Br)o3)nn2-c2ccccc2)cc1`, the inhibition was 13.8% against Histone deacetylase 1 [1] and 55.8% in experiment [4].
The corresponding values for `NC(=O)c1ccc(NCc2nc(-c3ccccc3)nn2-c2ccccc2)cc1` are -2.6% and -4.4%.
`O=C(NO)c1ccc(NCc2nc(-c3ccccc3Cl)nn2-c2ccccc2)cc1`: the values for the inhibition (against Histone deacetylase 1 [1]; in experiment [4]) were 15.6% and 75%, respectively. Besides, the IC50 was 185 nM in experiment [2], 3830 nM on Histone deacetylase 1 [3] and over 20000 nM in the experiment on MGC-803.
Consider `Cc1ccc(-n2nc(-c3ccccc3)nc2CNc2ccc(C(=O)NO)cc2)cc1C`, for which the inhibition on Histone deacetylase 1 [1] was determined as 11%; in experiment [4], 53%.
For the molecule `O=C(NO)c1ccc(NCc2nc(-c3cccc(Cl)c3)nn2-c2ccccc2)cc1`, the inhibition came out at 17% on Histone deacetylase 1 [1] and 61.2% in experiment [4]. Moreover, the IC50 in experiment [2] is 115 nM; at Histone deacetylase 1 [3], 1870 nM; with MGC-803, 5760 nM.
The corresponding values for `O=C(NO)c1ccc(NCc2nc(-c3ccc(F)cc3)nn2-c2ccccc2)cc1` are 20.8%, 70.9%, 114 nM, 3400 nM and 8960 nM.
With `O=C(NO)c1ccc(NCc2nc(-c3ccccc3)nn2-c2ccccc2Cl)cc1`, the inhibition on Histone deacetylase 1 [1] worked out at 17%; in experiment [4], 64.6%. Besides, the values for the IC50 (in experiment [2]; at Histone deacetylase 1 [3]; with MGC-803) were 669 nM, 3120 nM and 9630 nM, respectively.
On to `Cc1cccc(-n2nc(-c3ccccc3)nc2CNc2ccc(C(=O)NO)cc2)c1`, for which the inhibition is 18.4% on Histone deacetylase 1 [1] and 66% in experiment [4]. The figures for the 50% inhibitory concentration (IC50) (in experiment [2]; on Histone deacetylase 1 [3]; with MGC-803) were 388 nM, 3850 nM and 13200 nM, respectively.
Turning to `O=C(O)c1ccc(NCc2nc(-c3ccccc3)nn2-c2ccccc2)cc1`, the inhibition is 2.1% against Histone deacetylase 1 [1] and -0.4% in experiment [4].
Take `O=C(NO)c1ccc(NCc2nc(-c3cccs3)nn2-c2ccc(O)cc2)cc1`: the values for the inhibition (against Histone deacetylase 1 [1]; in experiment [4]) were 38.4% and 79.6%, respectively. Further, the IC50 in experiment [2] is 33.5 nM; at Histone deacetylase 1 [3], 1500 nM; in the experiment with MGC-803, over 20000 nM.
Take `Nc1ccccc1NC(=O)c1ccc(NCc2nc(-c3ccccc3)nn2-c2ccccc2)cc1`: the inhibition at Histone deacetylase 1 [1] worked out at 32%; in experiment [4] it was 5%.
With `O=C(NO)c1ccc(NCc2nc(-c3cccc4cnccc34)nn2-c2ccccc2)cc1`, the inhibition on Histone deacetylase 1 [1] was 11.2%; in experiment [4], 40.2%.
The corresponding values for `O=C(NO)c1ccc(NCc2nc(-c3ccncc3)nn2-c2ccccc2)cc1` are 7.5% and 30.8%.
The corresponding values for `O=C(NO)c1ccc(NCc2nc(-c3ccc(Br)cc3)nn2-c2ccccc2)cc1` are 13.2% and 54.7%.
The corresponding values for `O=C(NO)c1ccc(NCc2nc(-c3ccc(C(F)(F)F)cc3)nn2-c2ccccc2)cc1` are 4.9% and 41.6%.
For `O=C(NO)c1ccc(NCc2nc(-c3cccnc3)nn2-c2ccccc2)cc1`, the inhibition against Histone deacetylase 1 [1] was found to be 12.9%; in experiment [4] it was 57.7%.
Take `Cc1ccc(-n2nc(-c3ccccc3)nc2CNc2ccc(C(=O)NO)cc2)cc1`: the inhibition worked out at 24.6% against Histone deacetylase 1 [1] and 60.7% in experiment [4]. Further, the IC50 in experiment [2] amounted to 310 nM; at Histone deacetylase 1 [3], 1720 nM.
Consider `NNC(=O)c1ccc(NCc2nc(-c3ccccc3)nn2-c2ccccc2)cc1`, for which the inhibition worked out at 4.1% against Histone deacetylase 1 [1] and 10% in experiment [4].
`O=C(NO)c1ccc(NCc2nc(-c3ccc(Cl)s3)nn2-c2ccccc2)cc1`: the inhibition on Histone deacetylase 1 [1] was determined as 8.3%; in experiment [4] it was 39.8%.
On the same counts, the results for `Cc1ccccc1-n1nc(-c2ccccc2)nc1CNc1ccc(C(=O)NO)cc1` are 17% and 57.1%.
On the same counts, the results for `CC(C)c1ccc(-c2nc(CNc3ccc(C(=O)NO)cc3)n(-c3ccccc3)n2)cc1` are 4.3% and 27.6%.

A word on the inhibition: it is the drop in the measured response relative to a control, in per cent. As a reminder, the IC50 is the midpoint of a concentration-inhibition curve.

These data come from ChEMBL document CHEMBL4811252, “Identification of novel 1,3-diaryl-1,2,4-triazole-capped histone deacetylase 6 inhibitors with potential anti-gastric cancer activity” (Eur J Med Chem, 2021).
